Measurements from patent US20250009819A1, “NOVEL PROBIOTICS AND USE THEREOF” (PBLBIOLAB CO., LTD., priority 2021, published 2025).

Tested on: gut microbiota
Assay: Gut microbiota analysis in animals with ampicillin-induced gut microbiota imbalance (FIG. 1)
Assay type: in vivo, C57BL/6 male mice
Settings: feces, ampicillin-treated mice, result in words
Experimental: First, DNA from feces was isolated using the QIAamp DNA stool mini kit (Qiagen, Germany), pyrosequencing was performed by amplifying barcoded primers (V4 region of the bacterial 16S rRNA gene) to generate amplicons, and 16S rDNA was analyzed by Illumina iSeq 100 (San Diego, CA) to analyze occupancy.
C57BL/6 male mice (5 weeks old, 19-21 g) were divided (6 mice in each group) and acclimatized to the laboratory for 1 week. To induce intestinal and brain diseases, the mice were orally administered with ampicillin (AP, 100 mg/kg, dissolved in physiological saline) for 3 days. Meanwhile, the normal group was orally administered with 0.1 ml of physiological saline. […] The day following the conclusion of sample administration, the experimental animals were sacrificed, and samples from the brain hippocampus, colon, and spleen were collected. In the Hippocampus, inflammatory indicators, such as IFN-γ, TNF-α, and IL-10, were measured using ELISA. In the colon, intestinal length and inflammatory indicators, such as IFN-γ, TNF-α, and IL-10, were measured. In the spleen, Th1 cells and Treg cells were measured by FACS (Fluorescence-Activated Cell Sorting), and in feces, endotoxin (LPS) and gut microbial communities were measured.

Row | Substance | imbalance in the beta diversity, Proteobacteria, and Bacteroidetes of gut microbiota
1 | Lactobacillus rhamnosus NK210 | improved to a balanced form
2 | Bifidobacterium longum NK219 | improved to a balanced form
